A melting point compilation (Tetko et al.; mined from patent text by program, amines drawn as free bases though some values may be those of a salt)

Row | SMILES | melting point [°C]
1 | COc1nc(C)nc(NC(=O)NS(=O)(=O)c2ccccc2-c2ccccc2)n1 | 190 to 193
2 | CCOC(=O)c1cnc2c(SC(=O)N(C)C)cccn2c1=O | 133 to 134
3 | Fc1ccc(-c2nc3occn3c2-c2ccnc(N[C@H]3CN4CCC3CC4)n2)cc1 | 217 to 218
4 | Nc1nc(Cl)cc(NCC2(CO)COC2)n1 | 185 to 186
5 | CCOc1nc(C)nc(N2CCc3ccccc3CC2)c1[N+](=O)[O-] | 145 to 147
6 | CP(C)(=O)COc1cc(Cl)c(C=O)c(Cl)c1 | 136 to 139
7 | NC(C(=O)O)c1c(C(=O)O)csc1-c1ccccc1 (configuration not stated) | 266 to 271
8 | O=c1nc(-c2ccccc2)c2cc([N+](=O)[O-])ccc2n1CC1CCCO1 (configuration not stated) | 150 to 152
9 | COCCOc1ccc(/C=C/C(=O)NS(=O)(=O)c2ccc(F)cc2)c(Oc2ncc(C(F)(F)F)cc2Cl)c1 | 183 to 184
10 | COC(=O)c1ccc(Cl)cc1NC(=O)CSc1ccccc1Cl | 99 to 101
11 | CCN(CC)C(=O)n1cc(C=O)c(S(=O)(=O)c2cccc(Cl)c2C)n1 | 95 to 97
12 | COC(=O)c1cn(-c2cc(C(=O)Nc3cc(C(C)(C)C)cc(NS(C)(=O)=O)c3OC)cc(C)c2C)nn1 | 199
13 | COC(=O)C(=O)c1cc[nH]c1 | 112
14 | CC(C)(C)OC(=O)N1CCC[C@H](COc2ccccc2O)C1 | 98 to 101
15 | O=c1c2c(F)cccc2nc2sccn12 | 205 to 207
16 | O=C1[C@H]2CCC[C@H]2N(C(=O)Cn2cnc3ccccc32)c2ccccc2N1Cc1ccccc1 (relative stereo) | 188 to 189
17 | COC(=O)c1nc(-c2csc3ccc(C)cc23)nc(N)c1Cl | 164 to 165
18 | OC(CN1CCC(O)(Cc2ccccc2)CC1)c1ccc(Cl)cc1 (configuration not stated) | 151 to 152
19 | CC(=O)OCc1c2ccccc2cc2ccccc12 | 110 to 112
20 | C=Cc1cc(O[Si](C)(C)C(C)(C)C)cc2nc(-c3ccc(O[Si](C)(C)C(C)(C)C)c(F)c3)oc12 | 93 to 95
21 | Cc1csc(N2CCN(Cc3ccc(C(=O)Nc4ccc(F)cc4)cc3)C2=O)n1 | 206 to 207
22 | N#Cc1ccc2ccn(C3CCN(CCc4ccc(F)cc4)CC3)c2c1 | 131 to 132
23 | O=c1[nH]ncc2ccc(/C=C/c3ccc(O)cc3)cc12 | 305 to 308
24 | CC(C)N(NC(=O)c1ccc(Cl)c(Cl)c1)C(=O)c1ccccc1 | 157
25 | CCCCCOc1ccc(C=O)cc1OCCCCC | 31 to 32.5
26 | Cc1cc(C)c(S(=O)(=O)NC(COc2ccccc2)C(F)(F)F)c(C)c1 (configuration not stated) | 89 to 91

Row | SMILES | melting point [°C]
27 | Cc1ccc(S(=O)(=O)OC2CCc3[nH]c4ccc(C)cc4c3C2)cc1 (configuration not stated) | 125 to 127
28 | CCOC(=O)c1cnn(-c2cc(C)cc(C)c2)c1S(C)(=O)=O | 120 to 122
29 | N#Cc1cc(F)c(-n2nc3ccc(Cl)cn3c2=O)cc1F | > 230
30 | Nc1cc(Br)nc(CO)c1 | 144 to 145
31 | CN1CCC(NC2=Nc3ccccc3Cn3nnnc32)CC1 | 112 to 114
32 | COc1ccccc1C1(O[Si](C)(C)C)C(=O)Nc2ccc(Cl)cc21 (configuration not stated) | 185 to 187
33 | Cn1c(=O)[nH]c2ccc(-c3cccc(Cl)c3)cc21 | 219 to 220
34 | Oc1ncnc2[nH]c(-c3ccccc3)cc12 | > 300
35 | Cc1cc(CCC(=O)O)nc(-c2nc(=O)c3ccccc3s2)c1 | 245 to 246
36 | COc1ccc(C)cc1NC(=O)Nc1ccc(N2CCC(C(=O)Nc3ncccc3C)CC2)cc1 | 200 to 203
37 | CC1CCCCN1c1nc(N)nc(-c2cc(Cl)ccc2Cl)n1 (configuration not stated) | 136 to 137
38 | COc1cc(Nc2nc3cccc(-c4cncc5ccccc45)c3o2)cc(OC)c1OC | 201 to 203
39 | CCOC(=O)CC[C@H](NC(=O)c1ccc(C#Cc2cnc3nc(NC(=O)C(C)(C)C)nc(O)c3c2)cc1)C(=O)OCC | > 250
40 | Nc1c(F)c(N2CC(O)C2)c(F)c2c1c(=O)c(C(=O)O)cn2C1CC1 | 271 to 275
41 | CCOC(=O)NS(=O)(=O)c1ccc2c(c1)CCO2 | 118 to 119
42 | CN1CCCC(Nc2ccnc3cc(Cl)ccc23)C1 (racemic) | 149 to 150
43 | N#CSc1nc(I)ncc1I | 183 to 185
44 | Cc1cccc(-c2ccc(=O)[nH]n2)c1 | 202 to 205
45 | CCN(CC)C(=O)n1ccc(S(=O)(=O)c2cccc(F)c2F)n1 | 78 to 81
46 | O=c1cc(-c2cc3ccccc3[nH]2)oc2ccccc12 | 157 to 158
47 | CCn1nc(C(C)(C)C)c2c1C(=S)NCC(c1ccccc1)=N2 | 230
48 | O=C(NCc1ccc(Cl)cc1)c1cnc2c(I)cc(CC3CCOCC3)cc2c1O | 257 to 259
49 | O=S1(=O)c2ccccc2Oc2cc(O)ccc21 | 213 to 215
50 | CC1C(=O)N(CC(N)=O)c2cc(Br)ccc21 (configuration not stated) | 102 to 104
51 | N#CN=C(NCC(=O)O)Nc1cccc(Cl)c1 | 109
52 | COc1ccc2c(c1)OCC21C(=O)N(Cc2cccnc2)c2ccccc21 (configuration not stated) | 164 to 165

Row | SMILES | melting point [°C]
53 | CC1(C)Oc2ccc(C#N)cc2[C@@H](NC(=O)Nc2ccc(-c3ncno3)cc2)[C@@H]1O | 162 to 167
54 | Cc1cc2c(Cl)nnc(Cl)c2n1Cc1ccccc1 | 122 to 124
55 | N#CC(Sc1nc2ccccc2[nH]1)c1ccccn1 (configuration not stated) | 166 to 167
56 | FC(F)(F)c1ccc(-c2cc(Nc3ccc4ccc(Cl)nc4c3)ncn2)cc1 | 233
57 | CC(=O)N1CCC(C(=O)N2CC[C@@H](N(C)C(=O)c3ccc(C(F)(F)F)cc3)[C@H](c3ccc(Cl)c(Cl)c3)C2)CC1 | 122
58 | COCC1CCCN1CCC1CCN(c2nc(=O)c3c(C)c(OC)c(OC)cc3[nH]2)CC1 (configuration not stated) | 83.1 to 111
59 | CCOC(=O)c1cc(=O)c(O)c(-c2ccc(OC)cc2)o1 | 163 to 164
60 | C#Cc1c(-c2ccc(F)cc2)cc(C(c2ccccc2)c2ccccc2)nc1C(C)C | 106 to 108
61 | CS(=O)(=O)Nc1cc([N+](=O)[O-])ccc1OC1CCCCC1 | 105 to 106
62 | Cc1ccc(NN2C=c3cc(-c4c(Cl)cccc4Cl)c(=O)n(C)c3=NC2)cc1 | 243 to 245
63 | CCOC(=O)c1cc(OC)c(OCC)c(OCC)c1-c1c(C(=O)OCC)cc(OC)c2c1OCO2 | 73 to 74.5
64 | CCCCNC(=O)CSc1nc(Cl)cc(Cl)n1 | 109 to 111
65 | NC(=O)C(=C1CSc2ccccc2N1)c1ccc(Cl)cc1 | 188 to 191
66 | CCCCCCC1CCC(O)C(=O)O1 (configuration not stated) | 75.5 to 77
67 | COC(=O)c1ccc(CNC(C)=O)c([N+](=O)[O-])c1 | 100 to 102
68 | COC(=O)C1=C(CO)NC(C)=C(C(=O)OC(C)C)C1c1ccccc1C#N (configuration not stated) | 134 to 137
69 | CCOC(=O)Cc1c(C)[nH]c2cc(F)c(OC)c(F)c12 | 92.1 to 92.7
70 | Cc1cccc(NCCC#N)c1C | 65.5 to 67
71 | NCCc1c2n(c3ccccc13)C(=O)CCC2 | 110 to 111
72 | CS(=O)(=O)Oc1cc(CC(=O)O)on1 | 101 to 103
73 | C=CCn1nc(-c2cc(C(C)(C)C)c(O)c(C(C)(C)C)c2)c2cccnc21 | 120 to 123
74 | CC(C)(CCCCC=CCCCCC(C)(C)CC(=O)O)CC(=O)O | 100 to 101
75 | c1cc2cc([C@@H]3CO3)ccc2s1 | 72 to 76
76 | COC(=O)c1cc(OC)cc(-c2ccc(N(C)C)cc2)n1 | 157 to 158
77 | O=c1[nH]c2ccccc2c(=O)cc1NCCO | 207
78 | CCN1CCC(NC(=O)Nc2ccccc2CCc2cc(C(C)(C)C)c(O)c(C(C)(C)C)c2)CC1 | 182 to 184

Row | SMILES | melting point [°C]
79 | Cc1ccc(C(=O)NCc2ccncc2)cc1 | 227
80 | N#Cc1ccc(NCCc2nc3cc(Cl)ccc3c3nn(-c4ccccc4)cc23)nc1 | 207 to 208
81 | CC1(C)OC[C@H](Cc2ccccc2)N1C(=O)Cn1cc(-c2ccc(-c3ccccc3)cc2)cn1 | 150 to 151
82 | CCCOc1c(OC)cc(C(C#N)CCC(C#N)c2cc(OC)c(OC)c(OC)c2)cc1SC (configuration not stated) | 131 to 132
83 | C=Cc1cc(C(C)NC(=O)C#Cc2ccc(C(C)(C)C)cc2)cc(F)c1NS(C)(=O)=O (configuration not stated) | 108 to 110
84 | CCOC(=O)c1cc(Nc2cccc(Cl)c2Cl)c(C(=O)OCC)cc1Nc1cccc(Cl)c1Cl | 265 to 266
85 | COc1ccc(-c2cc(F)c(F)cc2-c2ccc(S(N)(=O)=O)cc2)cc1F | 132 to 133
86 | O=C1c2c(O)ccc(O)c2C(=O)c2c(NCCN3CCC(O)CC3)ccc(NCCN3CCC(O)CC3)c21 | 241 to 244
87 | COC(=O)c1csc(-c2ccc(OC)cc2)n1 | 67 to 79
88 | Nc1c(Cl)cc2nc(O)c(O)nc2c1[N+](=O)[O-] | > 300
89 | Nc1ccccc1C(=O)c1ccccn1 | 145 to 146
90 | CC(=O)Nc1ccc(Oc2ncc(Cl)cn2)cc1 | 202
91 | CCCCCCCNC(=O)Nc1ccc(NC(=O)NCCCC)cc1C(=O)NC1CCN(C(c2ccccc2)c2ccccc2)CC1 | 209 to 211
92 | CC(C)n1nc(-c2nc(Br)c(N=S(C)C)nc2-c2ccccc2)ccc1=O | 220 to 224
93 | COc1ccc(S(N)(=O)=O)cc1N=Nc1c(O)c(O)c(N=Nc2cc(S(N)(=O)=O)ccc2OC)c2ccccc12 | 345
94 | Cc1cc(-c2ccc(C(F)(F)F)cc2)cc(-c2cccc(-c3cccc(S(N)(=O)=O)c3)n2)n1 | 250
95 | CC(C)(C)OC(=O)C(C)(C)Oc1ccc(N)cc1 | 87 to 88
96 | C[C@H](c1ccccc1)N(CC(=O)OC(C)(C)C)S(=O)(=O)c1ccc2c(Cl)cnc(NC(=N)N)c2c1 | 106 to 111
97 | Cc1c(-c2ccc(O)cc2)n(Cc2ccc(/C=C/C(N)=O)cc2)c2ccc(O)cc12 | 161 to 163
98 | O=C(O)CCC(=NO)c1ccc2c3c(oc2c1)CCCC3 | 148 to 150
99 | O=c1ccn(-c2cccc(C(F)(F)F)c2)nc1-c1ccnn1-c1ccccn1 | 189 to 190
100 | CC(C=CCOC(=O)c1ccc(C(N)=O)cc1)Oc1ccc(Oc2cnc3cc(Cl)ccc3n2)cc1 (configuration not stated) | 144 to 148
101 | CON=C(C(C)=O)C(=O)N(C)C | 73.5 to 75
102 | Cc1cc(C=O)c(OCCCCCCCCc2ccccc2)c(C=O)c1 | 59
